Test results reported in patent publication US20110300142A1, “USE OF ZEBURALINE FOR THE TREATMENT OF AUTOIMMUNE DISEASES OR IMMUNE REJECTION OF TRANSPLANTS” (priority 2007, published 2011).

Tests used:
IDO mRNA expression = assay: qRT-PCR analysis of IDO mRNA expression in rat colon cancer cell lines; format: cell-based; settings: for increase of the IDO mRNA level: 100 μM zebularine, normalized to HPRT
Description: The values given are normalized in relation to the HPRT expression values.
(§1) The treatment with 100 μM of zebularine induced IDO mRNA expression in all three cell lines. A 48-fold increase of the IDO mRNA level in the H1D2WT cell line, a 24-fold increase in the H1D2IL12C46 cell line and a 14-fold increase in the H1D2IL18C2 cell line were detected. […] The inventors know that the 100 μM treatment of tumour cells strongly induces the production of the immunosuppressive molecule IDO but the induction of other T cell immunosuppressive molecules might also be involved, although no evidence has been found for an effect on prostaglandine E2 (PGE2) or nitric oxide (NO) production. It seems that the 100 μM zebularine treatments are not affecting the PGE2 production, the NO production, or the production of tumour antigens.

[1] = cited from earlier work
bladder carcinoma cells = settings: zebularine 500-1000 mg/kg; cited from earlier work
IDO [2] = assay: IDO production in rat spleen cells; format: cell-based; settings: similar treatment (100 μM)
Text: (§2) In an experiment the inventors tested the immunogenicity of genetically engineered rat colon cancer cells expressing rat interleukin 12. These cancer cells have repeatedly been used to immunize rats that create a strong immune response towards the rat tumour cells. […] This was congruent with the changes in expression of IDO (FIG. 3). […] There is a very reproducible induction of IDO (about 20-fold) from different human leukocyte cultures with a slight interindividual variation.

tumour cells = assay: PGE2, NO and tumour antigen production of treated tumour cells; format: cell-based, rat; settings: 100 μM zebularine treatment
Description: as §1

[3] = mouse, cited from earlier work
human lymphocytes = assay: Proliferation of stimulated human lymphocytes; format: cell-based
Description: (§3) FIG. 4A show proliferation of stimulated human lymphocytes after five days in culture in the presence of zebularine at different concentrations, FIG. 4B show restoration of inhibited proliferation of stimulated human lymphocytes after five days in culture in the presence of zebularine at two different concentrations and the IDO inhibitor 1-methyl tryptophane at 100 μM and FIG. 4C show proliferation of stimulated rat spleen lymphocytes after four days in culture in the presence of zebularine at different concentrations.
as §2

rat colon cancer cells = assay: Immunization of rats with zebularine-pretreated tumour cells; proliferative response of spleen cells / immunogenicity; format: in vivo
Description: as §1, §2

[4] = compared to azacytidine or 2′-deoxy-azacytidine; cited from earlier work
IDO [5] = assay: IDO induction in human buffy coat leukocyte cultures; format: cell-based; settings: different human leukocyte cultures, slight interindividual variation
Text: as §2

rat spleen lymphocytes = assay: Proliferation of stimulated rat spleen lymphocytes; format: cell-based; settings: rat spleen cells
Description: as §3, §2

p16 gene expression = settings: zebularine 100-500 μM; cited from earlier work

## O=c1ncccn1[C@@H]1O[C@H](CO)[C@@H](O)[C@H]1O [zebularine, 1-(β-D-Ribofuranosyl)-1,2-dihydropyrimidin-2-one]
IDO mRNA expression; 100 μM
  production of IDO: strongly enhance
IDO mRNA expression; H1D2IL12C46 cell line
  increase of the IDO mRNA level: 24 fold
IDO mRNA expression; H1D2IL18C2 cell line
  increase of the IDO mRNA level: 14 fold
IDO mRNA expression; H1D2WT cell line
  increase of the IDO mRNA level: 48 fold
[1]
  solubility in water: soluble in water
Bladder carcinoma cells
  in vivo p16 gene expression: induced
  tumour volume: reduced
IDO [2]
  IDO production: enhanced IDO production
Tumour cells
  NO production: not affecting
  PGE2 production: not affecting
  production of tumour antigens: not affecting
[3]; i.v., 100 mg/kg, plasma, red blood cells, liver, kidney, spleen, heart, lung, muscle, Duodenum, Jejunum, Ileum, Colon and Carcass
  fraction of dose absorbed in tissues: about 60%
[3]; i.v.
  bioavailability after i.v. injection: good
  bioavailability for Fat, Brain, Testes, Cecum and Stomach: less
[3]; many tissues
  turnover in tissues: quite fast
[3]
  metabolites: uridine, uracil and dihydrouracil
Human lymphocytes; human buffy coat leukocytes
  polyclonal lymphocyte proliferation: strong suppression
Rat colon cancer cells; cells pre-treated with 100 μM zebularine
  immunogenicity of rat colon cancer cells expressing rat interleukin 12 when used for immunization: less immunogenic
Rat colon cancer cells; rats immunized with tumour cells pretreated with 100 μM zebularine
  proliferative response of non-adherent spleen cells stimulated with tumor cells in vitro: very weak proliferative response
[4]
  stability: stable
  toxicity: not very toxic
IDO [5]
  induction of IDO: about 20 fold
Rat spleen lymphocytes
  polyclonal lymphocyte proliferation: strong suppression
p16 gene expression
  p16 gene expression: induces p16 gene expression

## Cn1cc(C[C@H](N)C(=O)O)c2ccccc21 [1-methyl tryptophan, reference compound]
Human lymphocytes; IDO inhibitor added to zebularine-treated stimulated human lymphocytes, 100 μM, five days
  effect on zebularine-induced suppression of proliferation: can be blocked
